Changes are numbered by the printed parent chain.
Experiments:
GlyT2 T512A mutant = target: T1, GlyT2 T512A mutant (Homo sapiens, UniProt Q9Y345, T512A); assay: Inhibitor concentration–responses on glycine transport currents, two-electrode voltage clamp; assay type: cell-based; design: expressed in transfected cells; host or cells: Xenopus laevis oocytes injected with mutant RNA (pOTV vector); conditions: for IC50: T512A GlyT2 in Xenopus laevis oocytes
T1 sequence (Q9Y345 1-797 T512A): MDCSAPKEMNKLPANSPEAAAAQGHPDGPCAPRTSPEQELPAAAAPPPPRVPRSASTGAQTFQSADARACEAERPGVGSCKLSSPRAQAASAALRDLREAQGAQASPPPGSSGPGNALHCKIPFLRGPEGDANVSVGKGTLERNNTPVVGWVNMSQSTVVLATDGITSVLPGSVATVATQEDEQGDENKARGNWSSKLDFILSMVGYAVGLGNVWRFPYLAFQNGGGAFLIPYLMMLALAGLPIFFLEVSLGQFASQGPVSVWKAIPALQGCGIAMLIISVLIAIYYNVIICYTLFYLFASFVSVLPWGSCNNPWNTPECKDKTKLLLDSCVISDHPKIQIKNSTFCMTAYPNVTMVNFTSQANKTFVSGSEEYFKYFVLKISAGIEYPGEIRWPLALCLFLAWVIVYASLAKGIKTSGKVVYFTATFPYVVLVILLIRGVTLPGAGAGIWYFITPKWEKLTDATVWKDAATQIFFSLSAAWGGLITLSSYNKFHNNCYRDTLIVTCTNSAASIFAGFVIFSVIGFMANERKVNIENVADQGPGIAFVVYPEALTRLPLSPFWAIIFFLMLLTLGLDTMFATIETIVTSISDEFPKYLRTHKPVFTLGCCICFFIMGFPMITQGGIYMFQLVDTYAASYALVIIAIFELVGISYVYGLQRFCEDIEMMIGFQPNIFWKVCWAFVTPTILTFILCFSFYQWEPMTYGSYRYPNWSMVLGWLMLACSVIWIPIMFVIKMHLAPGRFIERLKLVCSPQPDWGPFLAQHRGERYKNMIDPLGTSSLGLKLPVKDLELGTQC
Protocol: (§1) Because of the slowly reversible nature of the compounds tested, inhibitor concentration–responses were performed cumulatively. An EC50 concentration of glycine was applied until a stable transport current was reached. EC50 concentrations of glycine were used to produce reliable currents for each transporter, and as the inhibitors are non-competitive, application of varying glycine concentrations is unlikely to affect their activity. Increasing concentrations of inhibitors were co-applied with glycine with each concentration producing a distinct plateau before the subsequent concentration was applied. Inhibitor concentration–responses were limited to a maximum concentration of 3 µM to mitigate the risk of changes to the free drug concentration because of micelle formation. Currents after the plateau of each inhibitor concentration were normalized to the current produced by application of glycine alone and fit using the method of least squares: Y=Bottom+(Top−Bottom)/(1+10^[X−LogIC50]), where X is log [inhibitor], Y is current normalized to glycine in the absence of inhibitor, and Top and Bottom are the maximal and minimal plateaus, respectively. The method of least squares was constrained to have the bottom value >0 and the hill slope as −1, enabling the calculation of IC50 values and the extent of inhibition produced by the maximal concentration applied.
(§2) IC50 values are presented as the mean and 95% confidence interval, whereas inhibition values are presented as the mean ± SEM. Data sets are n ≥ 5 from two batches of oocytes.

GlyT2 Y430L mutant = target: T2, GlyT2 Y430L mutant (Homo sapiens, UniProt Q9Y345, Y430L); assay: as above; assay type: cell-based; design: expressed in transfected cells; host or cells: Xenopus laevis oocytes injected with mutant RNA (pOTV vector); conditions: for IC50: Y430L GlyT2 in Xenopus laevis oocytes
T2 sequence (Q9Y345 1-797 Y430L): T1 sequence (Q9Y345 1-797 T512A) with Y430L, A512T
Protocol: as §1, §2

Compound: CCCCCCCC/C=C\CCCCCCCC(=O)O[C@H](CC(=O)[O-])C[N+](C)(C)C [Oleoyl-L-Carnitine, oleoyl-L-carnitine]
- IC50 (GlyT2 T512A mutant; 95% CI could not be fit): 1.7 µM
- Inhibition at 1 µM (column head 3 μM, footnote b) (GlyT2 T512A mutant; T512A, 1 µM): 44.1 ± 2.8^b %
- IC50 (GlyT2 Y430L mutant; 95% CI could not be fit): 1.1 µM
- Inhibition at 1 µM (column head 3 μM, footnote b) (GlyT2 Y430L mutant; Y430L, 1 µM): 49.6 ± 2.9^b %

Compound: CCCCCCCC/C=C\CCCCCCCC(=O)N[C@@H](CC(C)C)C(=O)O [Oleoyl-L-Leucine, oleoyl-L-leucine]
- IC50 (GlyT2 T512A mutant): 0.549 µM
- Inhibition at 3 μM (GlyT2 T512A mutant; T512A): 50.7 ± 5.7 %
- IC50 (GlyT2 Y430L mutant): 0.375 µM
- Inhibition at 3 μM (GlyT2 Y430L mutant; Y430L): 63.8 ± 2.6%

Compound: CCCCCCCC/C=C\CCCCCCCC(=O)N[C@@H](CCCCN)C(=O)O [Oleoyl-L-Lysine, oleoyl-L-lysine]
- IC50 (GlyT2 T512A mutant): 0.679 µM
- Inhibition at 3 μM (GlyT2 T512A mutant; T512A): 68.0 ± 1.7 %
- IC50 (GlyT2 Y430L mutant): 0.863 µM
- IC50 (GlyT2 Y430L mutant; listed as OLLys): 0.86 µM
- Reduction of potency compared with WT (GlyT2 Y430L mutant; Y430L vs WT): fourfold
- Inhibition at 3 μM (GlyT2 Y430L mutant; Y430L): 69.7 ± 4.7 %

Compound: CCCCCCCC/C=C\CCCCCCCC(=O)N[C@@H](Cc1c[nH]c2ccccc12)C(=O)O [Oleoyl-L-Tryptophan, oleoyl-L-tryptophan]
- IC50 (GlyT2 T512A mutant): 0.085 µM
- Inhibition at 3 μM (GlyT2 T512A mutant; T512A): 74.4 ± 4.5%
- IC50 (GlyT2 Y430L mutant): 0.057 µM
- Inhibition at 3 μM (GlyT2 Y430L mutant; Y430L): 83.5 ± 3.2%
